# Measurements: patent US20250009817A1, “IMMUNOMODULATING COMPOSITION CONTAINING GASSERI” (THE CATHOLIC UNIVERSITY OF KOREA INDUSTRY-ACADEMIC …, priority 2023, published 2025)
# What was measured:
# CD4+T cells = assay: Alloresponse (T cell proliferation) in allogeneic cell model, 3H thymidine incorporation; type: cell-based, mouse; settings: allogeneic co-culture; FK506 0.3 mg/ml; microbiome 100 μg/ml in combination; FIG. 1
# Protocol: To confirm an effect of the combination of FK506 and a microbiome of the present invention on transplantation rejection, an allogeneic cell model was used. Specifically, in a 96 well plate, 2×10^5 CD4+T cells from a normal responder (Bclb/c) per well were mixed and co-cultured with 2×10^5 splenocytes from which T cells derived from an irradiated responder (syngenic) or donor (C57BL/6, stimulator, allogeneic) were removed. During co-culture, an allogeneic model was treated with five types of Lactobacillus bacteria, Lactobacillus acidophilus (LA), L. reuteri (LRe), L. rhamnosus (LRh), L. paracasei (LPC) or L. casei (LC) alone at 1, 10, and 100 μg/ml, or administered in combination with 0.3 mg/ml of FK506. As a control group, a syngenic transplantation group (Syn group) and an allogeneic transplantation group (Allo group) were used. Thereafter, in order to confirm alloresponses in mice of each group, T cell proliferation responses (alloresponses) were confirmed in the cultured cells using a 3H thymidine incorporation method.
# [1] = test system: acute graft-versus-host disease (aGVHD); assay: Disease activity, body weight and probability of survival in acute graft-versus-host disease animal model; type: in vivo, mouse; settings: aGVHD mice, FK506 5 mg/kg, microbiome 400 mg/kg, oral once daily 4 weeks
# Protocol: Specifically, in order to fabricate an aGVHD model, a responder mouse Balb/c (H-2k/d) was subjected to total body irradiation (TBI) of 690 cGy, bone marrow stem cells and splenocytes were isolated from the femur and tibia of a donor mouse C57BL/6 (H-2k/b), and then 5×10^6 bone marrow (BM) stem cells and 5×10^6 splenocytes were transplanted into the responder mouse Balb/c (H-2k/d). Thereafter, after the occurrence of aGVHD, 5 mg/kg of FK506 and 400 mg/kg each of Lactobacillus rhamnosus (LR) or Lactobacillus paracasei (LP) were administered orally once daily for 4 weeks. Disease activity, body weight, and probability of survival of mice in each group were measured once a week to confirm whether the disease activity was suppressed (FIG. 5). As control groups, a syngenic (syn) group transplanted with syngenic cells; a vehicle group, in which aGVHD was induced and saline was injected; and groups administered with FK506, Lactobacillus rhamnosus, and Lactobacillus paracasei alone were used.
# IL-17 and IL-10 = IL-17 and IL-10 in culture medium under allo response conditions, ELISA; type: cell-based, human; settings: hPBMCs, 72 hours, FK506 1 nM, microbiomes 10 μg/ml each, vs Vehicle group
# Protocol: Specifically, the proliferation of allo response T cells was confirmed for FK506 alone (1 nM) and a combination of FK506 (1 nM) and L. gasseri (10 μg/ml); L. gasseri (10 μg/ml) and L. acidophilus (10 μg/ml); two microbiomes (each 10 μg/ml) and zinc (50 μM); or two microbiomes (each 10 μg/ml), zinc (50 μM), vitamin B9, and vitamin B12 (B9+B12 20 μM). Specifically, different human peripheral blood mononuclear cells (hPBMCs) were inoculated at a ratio of 1:1 (each concentration of 1×10^5 cells) on a 96 well plate coated with a concentration of anti CD3 0.5 μg/ml, treated with the combination in hPBMCs in which allo conditions were induced, and then cultured for 72 hours. Thereafter, 10 μl of CCK8 was treated to each well and reacted for 4 hours, and then the cell proliferation response was measured by absorbance at 450 nm. As a control group, a Vehicle group in which the active ingredient was replaced with a solvent was used.
# It was confirmed whether the combination of FK506 and the microbiome of the present invention regulated the expression of inflammation-related factors under allo response conditions. Specifically, a culture medium of each cell cultured in Example 7-1 was obtained, and the amounts of IL-17 as an inflammatory factor and IL-10 as an inflammation regulator in the culture medium were analyzed by ELISA.
# IL-17, IL-10, and IFN-γ = assay: IL-17, IL-10 and IFN-γ in hPBMC under T cell stimulation conditions (anti-CD3), ELISA; type: cell-based, human; settings: anti-CD3 2 μg/ml, 24 hours, FK506 1 nM, microbiomes 10 μg/ml each
# Protocol: (§1) It was confirmed whether the combination of FK506 and the microbiomes of the present inention regulated IL-17 and IL-10 in human peripheral blood mononuclear cells (hPBMCs) under T cell stimulation conditions. Specifically, PBMCs isolated from human peripheral blood were treated with anti-CD3 at a concentration of 2 μg/ml to activate T cells. Thereafter, the PBMCs were treated with FK506 alone (1 nM) and a combination of FK506 (1 nM) and L. gasseri (10 μg/ml); L. gasseri (10 μg/ml) and L. acidophilus (10 μg/ml); two microbiomes (each 10 μg/ml) and zinc (50 μM); or two microbiomes (each 10 μg/ml), zinc (50 μM), vitamin B9, and vitamin B12 (B9+B12 20 μM) and cultured for 24 hours. After completion of the culture, the cell culture medium was obtained, and the amounts of IL-17 and IL-10 in the culture medium were measured by ELISA.
# Treg = Treg expression in hPBMC under T cell stimulation conditions, flow cytometry; type: cell-based, human; settings: anti-CD3 2 μg/ml, 24 hours, FK506 1 nM, microbiomes 10 μg/ml each, zinc 50 μM, B9+B12 20 μM
# Protocol: as §1
# It was confirmed whether the combination of FK506 and the microbiomes of the present invention regulated the expression of Treg reduced by treatment with the immunosuppressant. Specifically, cells in each group of Example 8-1 were obtained, and expression of Treg was confirmed by flow cytometry.
# [2] = test system: Breg and B10 cells, and CD19-positive and IL-10-positive cells; assay: Breg, B10 and CD19-positive IL-10-positive cells in LPS-stimulated hPBMC, flow cytometry; type: cell-based, human; settings: LPS 100 ng/ml, 24 hours
# Protocol: The immune cell regulatory effect of the combination of FK506 and the microbiomes of the present invention in hPBMC according to LPS was confirmed. Specifically, PBMCs isolated from human peripheral […] were treated with LPS at a concentration of 100 ng/ml to activate immune cells. Thereafter, FK506 alone; or a combination of FK506 and L. gasseri; L. gasseri and L. acidophilus; microbiomes and zinc; or microbiomes, zinc, vitamin B9, and vitamin B12 was treated and cultured for 24 hours. After completion of culture, cells in each group were obtained, and the expression of immune B cells Breg and B10 cells, and CD19-positive and IL-10-positive cells was confirmed using flow cytometry.
compound,measurement,setting,value
"C=CC[C@@H]1/C=C(\C)C[C@H](C)C[C@H](OC)[C@H]2O[C@@](O)(C(=O)C(=O)N3CCCC[C@H]3C(=O)O[C@H](/C(C)=C/[C@@H]3CC[C@@H](O)[C@H](OC)C3)[C@H](C)[C@@H](O)CC1=O)[C@H](C)C[C@@H]2OC.O [FK506, Tacrolimus]",T cell proliferation (alloresponse),CD4+T cells,suppressed
same,probability of survival,[1]; at the end of the experiment,60%
same,body weight,[1]; compared to the vehicle group,increased
same,disease activity,[1]; compared to the vehicle group,decreased
same,expression of IL-10 in the culture medium,IL-17 and IL-10,significantly decreased
same,amount of IFN-γ,"IL-17, IL-10, and IFN-γ; vs Vehicle group",significantly decreased
same,amount of IL-10,"IL-17, IL-10, and IFN-γ; zinc 50 μM, B9+B12 20 μM",not expressed
same,expression of Treg,Treg,significantly decreased
same,expression of B10,[2],decreased
same,expression of Breg,[2]; vs Vehicle group,significantly decreased
